# Test results from the supplement of paper PMC10307832.
# Tests used:
# Experiment in all cases: relative viability (nuclei count vs DMSO), 5 days (fraction); higher = more cells survive
# [1] = system: 201T
# In short: (§1)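 Lung cancer cell lines were seeded in 1536-well plates and dosed by pin tool the next day, with either a single drug or a fixed anchor-drug dose combined with five library-drug doses (not always all listed) spaced in √10 steps. Five days later, one step fixed the cells and stained their nuclei (final 0.05% Triton X-100, 1% formaldehyde, 1 ug/ml Hoechst), and nuclei were counted on 4× images. Relative viability is the nuclei count in treated wells divided by the count in vehicle wells, and each value is the median of duplicate plates.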
# [2] = system: COR-L 105
# In short: as §1
# [3] = system: COR-L23
# In short: as §1
# [4] = system: EMC-BAC-2
# In short: as §1
# [5] = system: HCC-15
# In short: as §1
# [6] = system: HCC-366
# In short: as §1
# [7] = system: LC-2-ad
# In short: as §1
# [8] = system: NCI-H1437
# In short: as §1
# [9] = system: NCI-H1755
# In short: as §1
# [10] = system: NCI-H1792
# In short: as §1
# [11] = system: NCI-H1915
# In short: as §1
# [12] = system: NCI-H2009
# In short: as §1
# [13] = system: NCI-H2023
# In short: as §1
# [14] = system: NCI-H2347
# In short: as §1
# [15] = system: NCI-H23
# In short: as §1
# [16] = system: NCI-H650
# In short: as §1
# [17] = system: PC-14
# In short: as §1
compound,measurement,setting,value
Cc1csc(=NC2CCCCC2)n1/N=C/c1ccc(O)c(O)c1O [MIM1] + CC(C)C[C@H](NC(=O)[C@H](Cc1ccccc1)NC(=O)c1cnccn1)B(O)O [Bortezomib] (partner 0.002 µM),relative viability,[1]; first compound 0.2 µM,1.09
same,relative viability,[1]; first compound 0.6325 µM,1.08
same,relative viability,[1]; first compound 2 µM,1.08
same,relative viability,[1]; first compound 6.325 µM,0.779
same,relative viability,[1]; first compound 20 µM,0.82
same,relative viability,[2]; first compound 0.2 µM,0.789
same,relative viability,[2]; first compound 0.6325 µM,0.82
same,relative viability,[2]; first compound 2 µM,0.719
same,relative viability,[2]; first compound 6.325 µM,0.54
same,relative viability,[2]; first compound 20 µM,0.278
same,relative viability,[3]; first compound 0.2 µM,1.02
same,relative viability,[3]; first compound 0.6325 µM,1.04
same,relative viability,[3]; first compound 2 µM,0.969
same,relative viability,[3]; first compound 6.325 µM,0.659
same,relative viability,[3]; first compound 20 µM,0.418
same,relative viability,[4]; first compound 0.2 µM,1.08
same,relative viability,[4]; first compound 0.6325 µM,0.822
same,relative viability,[4]; first compound 2 µM,1.08
same,relative viability,[4]; first compound 6.325 µM,0.996
same,relative viability,[4]; first compound 20 µM,0.259
same,relative viability,[5]; first compound 0.2 µM,1.05
same,relative viability,[5]; first compound 0.6325 µM,0.911
same,relative viability,[5]; first compound 2 µM,1.06
same,relative viability,[5]; first compound 6.325 µM,0.36
same,relative viability,[5]; first compound 20 µM,0.267
same,relative viability,[6]; first compound 0.2 µM,1.02
same,relative viability,[6]; first compound 0.6325 µM,0.994
same,relative viability,[6]; first compound 2 µM,0.793
same,relative viability,[6]; first compound 6.325 µM,0.998
same,relative viability,[6]; first compound 20 µM,0.0323
same,relative viability,[7]; first compound 0.2 µM,1.06
same,relative viability,[7]; first compound 0.6325 µM,0.545
same,relative viability,[7]; first compound 2 µM,0.986
same,relative viability,[7]; first compound 6.325 µM,0.383
same,relative viability,[7]; first compound 20 µM,0.201
same,relative viability,[8]; first compound 0.2 µM,0.441
same,relative viability,[8]; first compound 0.6325 µM,0.427
same,relative viability,[8]; first compound 2 µM,0.536
same,relative viability,[8]; first compound 6.325 µM,0.221
same,relative viability,[8]; first compound 20 µM,0.112
same,relative viability,[9]; first compound 0.2 µM,0.954
same,relative viability,[9]; first compound 0.6325 µM,0.949
same,relative viability,[9]; first compound 2 µM,0.893
same,relative viability,[9]; first compound 6.325 µM,0.776
same,relative viability,[9]; first compound 20 µM,0.377
same,relative viability,[10]; first compound 0.2 µM,0.852
same,relative viability,[10]; first compound 0.6325 µM,0.921
same,relative viability,[10]; first compound 2 µM,0.922
same,relative viability,[10]; first compound 6.325 µM,0.452
same,relative viability,[10]; first compound 20 µM,0.851
same,relative viability,[11]; first compound 0.2 µM,0.989
same,relative viability,[11]; first compound 0.6325 µM,0.857
same,relative viability,[11]; first compound 2 µM,0.898
same,relative viability,[11]; first compound 6.325 µM,0.461
same,relative viability,[11]; first compound 20 µM,0.725
same,relative viability,[12]; first compound 0.2 µM,1.01
same,relative viability,[12]; first compound 0.6325 µM,0.956
same,relative viability,[12]; first compound 2 µM,1.02
same,relative viability,[12]; first compound 6.325 µM,0.529
same,relative viability,[12]; first compound 20 µM,0.106
same,relative viability,[13]; first compound 0.2 µM,1.11
same,relative viability,[13]; first compound 0.6325 µM,0.916
same,relative viability,[13]; first compound 2 µM,0.765
same,relative viability,[13]; first compound 6.325 µM,0.35
same,relative viability,[13]; first compound 20 µM,0.0682
same,relative viability,[14]; first compound 0.2 µM,0.944
same,relative viability,[14]; first compound 0.6325 µM,1.03
same,relative viability,[14]; first compound 2 µM,0.939
same,relative viability,[14]; first compound 6.325 µM,0.798
same,relative viability,[14]; first compound 20 µM,0.578
same,relative viability,[15]; first compound 0.2 µM,1.08
same,relative viability,[15]; first compound 2 µM,0.702
same,relative viability,[15]; first compound 6.325 µM,0.851
same,relative viability,[15]; first compound 20 µM,0.167
same,relative viability,[16]; first compound 0.2 µM,0.769
same,relative viability,[16]; first compound 0.6325 µM,0.73
same,relative viability,[16]; first compound 2 µM,0.682
same,relative viability,[16]; first compound 6.325 µM,0.832
same,relative viability,[16]; first compound 20 µM,0.296
same,relative viability,[17]; first compound 0.2 µM,0.751
same,relative viability,[17]; first compound 0.6325 µM,0.882
same,relative viability,[17]; first compound 2 µM,0.779
same,relative viability,[17]; first compound 6.325 µM,0.692
same,relative viability,[17]; first compound 20 µM,0.192
